Our source for the EC50 and Efficacy values is ChEMBL document CHEMBL1147493, “Small molecule biaryl FSH receptor agonists. Part 2: Lead optimization via parallel synthesis” (Bioorg Med Chem Lett, 2004).

Holding throughout (assay type): functional
The target of experiment [1] is T1, Follicle-stimulating hormone receptor (Homo sapiens, UniProt P23945).
T1 sequence (P23945 whole entry): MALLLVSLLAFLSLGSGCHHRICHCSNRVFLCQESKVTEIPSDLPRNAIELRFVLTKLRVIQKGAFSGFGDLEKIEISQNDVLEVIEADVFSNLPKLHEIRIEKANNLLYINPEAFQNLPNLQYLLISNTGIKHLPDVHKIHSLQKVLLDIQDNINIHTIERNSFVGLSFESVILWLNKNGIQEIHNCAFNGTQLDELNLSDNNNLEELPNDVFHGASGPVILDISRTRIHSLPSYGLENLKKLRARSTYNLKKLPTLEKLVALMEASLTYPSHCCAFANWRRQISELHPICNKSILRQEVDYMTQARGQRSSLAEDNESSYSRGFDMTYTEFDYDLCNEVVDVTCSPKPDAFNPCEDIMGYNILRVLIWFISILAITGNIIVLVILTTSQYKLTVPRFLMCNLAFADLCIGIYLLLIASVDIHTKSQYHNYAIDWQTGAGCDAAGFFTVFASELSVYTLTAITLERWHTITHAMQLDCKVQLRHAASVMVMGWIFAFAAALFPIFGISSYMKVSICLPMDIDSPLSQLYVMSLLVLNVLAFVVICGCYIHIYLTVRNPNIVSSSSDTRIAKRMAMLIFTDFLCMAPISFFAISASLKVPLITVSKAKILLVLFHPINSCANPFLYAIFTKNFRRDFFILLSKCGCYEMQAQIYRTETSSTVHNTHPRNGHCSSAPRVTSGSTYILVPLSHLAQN
Put plainly: Agonistic activity against human follicle stimulating hormone receptor in CHO-hFSHR-luciferase assay.

Experiment [2] has as its target T2, Follicle-stimulating hormone receptor (Homo sapiens) (UniProt P23945).
T2 sequence (whole entry): T1 sequence (P23945 whole entry)
In words: Agonistic efficacy in CHO-hFSHR cell-based cAMP accumulation assay relative to FSH(=100%). On the technique in general: cAMP levels reflect the balance of adenylyl cyclase and phosphodiesterase activity.

The target of experiment [3] is T1, Follicle-stimulating hormone receptor. In words: Agonistic activity in CHO-hFSHR cell-based cAMP accumulation assay.
Experiment [4] has the same target. In words: Agonistic activity in CHO-hFollicle stimulating hormone receptor cell-based cAMP accumulation assay.

Several values for one entry are separate records, joined by “and”; a condition that tells them apart may be missing. Identical values can stand only once. Bounds are passed on as bounds.

Broadly, the EC50 is the midpoint of the concentration-response curve. Low readings indicate higher potency in that assay, high ones lower potency in that assay. In the case of `CCCCCCCCN1C(=O)[C@H](Cc2ccc(-c3cccc(CN(COC)C(C)=O)c3)cc2)N(C)C(=O)[C@@H]1C`, the 50% effective concentration (EC50) in experiment [1] was determined as 9.7 nM.

Turning to `CCCCCCN1CC(=O)N(C)[C@H](Cc2ccc(-c3cc(OC)c(OC)c(OC)c3)cc2)C1=O`, the 50% effective concentration (EC50) in experiment [1] is > 50000 nM. Molecule `CCCCCCCCN1C(=O)[C@H](Cc2ccc(-c3cc(OC)c(OC)c(OC)c3)cc2)N(C)C(=O)[C@H]1C` had an EC50 in experiment [1] of 120 nM. This lies in the sub-micromolar range. `CCCCCCCCN1C(=O)[C@H](Cc2ccc(-c3cccc(CN(CCCC)C(=O)OC)c3)cc2)N(C)C(=O)[C@@H]1C`: the EC50 in experiment [1] turned out to be 2.7 nM; in experiment [3] it was 31 nM. In experiment [2], this molecule returned an Efficacy of 49%.

With `CCCCCCN1C(=O)[C@H](Cc2ccc(-c3cc(OC)c(OC)c(OC)c3)cc2)N(C)C(=O)[C@@H]1C`, the concentration for a half-maximal effect (EC50) in experiment [1] was found to be 100 nM. On the same count and under the same terms, in the case of `CCCCCCCCN1CC(=O)N(C)[C@@H](Cc2ccc(-c3cc(C)c(OC)c(C)c3)cc2)C1=O` it was 1200 nM; in that of `CCCCCCCCN1CC(=O)N(C)[C@@H](Cc2ccc(-c3cc(OC)c(OC)c(OC)c3)cc2)C1=O`, 400 nM; in that of `CCCCCCCCN1C(=O)[C@@H](Cc2ccc(-c3cc(OC)c(OC)c(OC)c3)cc2)N(C)C(=O)[C@H]1C`, 1600 nM. In the case of `CCCCCNC(=O)CN1CC(=O)N(C)[C@@H](Cc2ccc(-c3cccc(CN(CCCC)C(=O)NC)c3)cc2)C1=O`, the half-maximal effective concentration (EC50) in experiment [1] came to 1.7 nM. Turning to `CCCCCCN1C(=O)[C@H](Cc2ccc(-c3cccc(CN(CCCC)C(C)=O)c3)cc2)N(C)C(=O)[C@@H]1C`, in experiment [1], the half-maximal effective concentration (EC50) was 150 nM.

On to `CCCCCCN1C(=O)[C@H](Cc2ccc(-c3cccc(CN(CCCC)C(=O)OC)c3)cc2)N(C)C(=O)[C@@H]1C`, for which the half-maximal effective concentration (EC50) is 8.9 nM in experiment [1]; 48 nM and 59 nM in experiment [3]. Regarding `CCCCCCCCN1C(=O)[C@H](Cc2ccc(-c3cccc(CN(CCCC)C(C)=O)c3)cc2)N(C)C(=O)[C@@H]1C`, the results for the half-maximal effective concentration (EC50) in experiment [1] and in experiment [3] were 14 nM and 35 nM, respectively. Also, in experiment [2], the Efficacy came out at 57%. Consider `CCCCCCNC(=O)CN1CC(=O)N(CCC)[C@@H](Cc2ccc(-c3cc(OC)c(OC)c(OC)c3)cc2)C1=O`, for which, in experiment [1], the half-maximal effective concentration (EC50) was > 20000 nM. In turn, `CCCCCCNC(=O)CN1CC(=O)N(C)[C@@H](Cc2ccc(-c3cc(OC)c(OC)c(OC)c3)cc2)C1=O` displayed an EC50 in experiment [1] of 3 nM. For `CCCCCCN1C(=O)[C@H](Cc2ccc(-c3cccc(CN(CCCC)C(=O)NC)c3)cc2)N(C)C(=O)[C@@H]1C`, the EC50 came out at 7.2 nM in experiment [1] and 9.5 nM in experiment [3]. In experiment [2], this molecule registered an Efficacy of 85%. In experiment [1], `CCCCCCCCN1C(=O)[C@H](Cc2ccc(-c3cccc(CN(COC)C(=O)OC)c3)cc2)N(C)C(=O)[C@@H]1C` registered a concentration giving a half-maximal response (EC50) of 1.8 nM. In other words, the single-digit nanomolar range.

For `CCCCCCCN1CC(=O)N(C)[C@@H](Cc2ccc(-c3cc(OC)c(OC)c(OC)c3)cc2)C1=O`, the EC50 in experiment [1] was 2300 nM. Consider `CCCCCCCN1C(=O)[C@H](Cc2ccc(-c3cc(OC)c(OC)c(OC)c3)cc2)N(C)C(=O)[C@@H]1C`, for which the EC50 turned out to be 25 nM in experiment [1] and 32 nM in experiment [4]. The molecule further showed an Efficacy in experiment [2] of 54%.

`CCCCCCCCN1C(=O)[C@H](Cc2ccc(-c3cc(OC)c(OC)c(OC)c3)cc2)N(C)C(=O)[C@@H]1C`: the EC50 in experiment [1] was 13 nM; in experiment [3], 32 nM. The same molecule showed an Efficacy in experiment [2] of 47%.

In turn, `CCCCCCCCN1C(=O)[C@@H](Cc2ccc(-c3cc(OC)c(OC)c(OC)c3)cc2)N(C)C(=O)[C@@H]1C` registered an EC50 in experiment [1] of 68 nM.

With `CCCCCCNC(=O)CN1CC(=O)N(CC)[C@@H](Cc2ccc(-c3cc(OC)c(OC)c(OC)c3)cc2)C1=O`, in experiment [1], the concentration for a half-maximal effect (EC50) was > 20000 nM.

Take `CCCCCCCCN1CC(=O)N(C)[C@@H](Cc2ccc(-c3cc(OC)cc(OC)c3)cc2)C1=O`: in experiment [1], the midpoint of the response, the EC50, lay at 5000 nM. This lies in the single-digit micromolar range. Still for that read-out and setting: in the case of `CCCCCCN1CC(=O)N(C)[C@@H](Cc2ccc(-c3cc(OC)c(OC)c(OC)c3)cc2)C1=O` it was 3000 nM; in that of `CCCCCCCCCN1CC(=O)N(C)[C@@H](Cc2ccc(-c3cc(OC)c(OC)c(OC)c3)cc2)C1=O`, 900 nM.

Regarding `CCCCCCNC(=O)CN1CC(=O)N[C@@H](Cc2ccc(-c3cc(OC)c(OC)c(OC)c3)cc2)C1=O`, the EC50 in experiment [1] is > 20000 nM.

As to `CCCCCCCCN1CC(=O)N(C)[C@@H](Cc2ccc(-c3ccc(OC)c(OC)c3)cc2)C1=O`, in experiment [1], a half-maximal effect (EC50) was put at 3300 nM. Take `CCCCCCCCN1C(=O)[C@H](Cc2ccc(-c3cccc(CN(CCCC)C(=O)NC)c3)cc2)N(C)C(=O)[C@@H]1C`: the EC50 in experiment [1] came to 1.2 nM; in experiment [3], 7.9 nM. The molecule further had an Efficacy in experiment [2] of 72%.

The molecule `CCCCCCCCN1C(=O)[C@H](Cc2ccc(-c3cccc(CN(COC)C(=O)NC)c3)cc2)N(C)C(=O)[C@@H]1C` registered an EC50 in experiment [1] of 3.6 nM. Still for that read-out and setting: as for `CCCCCN1CC(=O)N(C)[C@@H](Cc2ccc(-c3cc(OC)c(OC)c(OC)c3)cc2)C1=O`, the figure is 9000 nM.
